Data set [1] has as its target T1, Solute carrier family 22 member 6 (Rattus norvegicus, UniProt O35956).
T1 sequence (O35956 whole entry): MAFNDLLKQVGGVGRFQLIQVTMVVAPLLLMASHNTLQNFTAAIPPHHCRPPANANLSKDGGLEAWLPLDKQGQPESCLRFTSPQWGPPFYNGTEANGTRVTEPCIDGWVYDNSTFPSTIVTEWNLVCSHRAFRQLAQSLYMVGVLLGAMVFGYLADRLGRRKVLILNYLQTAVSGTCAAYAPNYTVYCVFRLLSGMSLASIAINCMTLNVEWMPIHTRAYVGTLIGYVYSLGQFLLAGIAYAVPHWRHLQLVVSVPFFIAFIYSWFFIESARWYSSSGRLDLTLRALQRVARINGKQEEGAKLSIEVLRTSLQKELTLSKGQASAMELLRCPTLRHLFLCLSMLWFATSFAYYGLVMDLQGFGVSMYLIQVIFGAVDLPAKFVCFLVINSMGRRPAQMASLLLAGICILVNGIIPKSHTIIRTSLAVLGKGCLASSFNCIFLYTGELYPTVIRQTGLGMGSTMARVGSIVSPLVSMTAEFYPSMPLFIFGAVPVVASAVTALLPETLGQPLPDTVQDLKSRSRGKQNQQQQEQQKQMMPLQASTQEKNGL
In words: TP_TRANSPORTER: uptake in Xenopus laevis oocytes. The note with it: oocyte. In kind it is functional, cell-based.

The target of data set [2] is T1, Solute carrier family 22 member 6. Kind of data set: TP_TRANSPORTER: inhibition of PAH uptake in Xenopus laevis oocytes. In kind it is functional, cell-based. The note with it: oocyte.

`Nc1nc2ncc(CNc3ccc(C(=O)N[C@@H](CCC(=O)O)C(=O)O)cc3)nc2c(=O)[nH]1` [FOLIC ACID]: the values for the Activity entry in data set [1] and in data set [2] were “substrate [+]” and “inhibitor [+]”, respectively.
Turning to `Cc1c(F)c(N2CCNC(C)C2)cc2c1c(=O)c(C(=O)O)cn2C1CC1` (centres undefined) [GREPAFLOXACIN], the Activity entry in data set [1] is “is not a substrate [-]”.
Still for that read-out and setting: with `C[C@H]1COc2c(N3CCN(C)CC3)c(F)cc3c(=O)c(C(=O)O)cn1c23.C[C@H]1COc2c(N3CCN(C)CC3)c(F)cc3c(=O)c(C(=O)O)cn1c23.O` [LEVOFLOXACIN] the entry was “is not a substrate [-]”.
